Experimental data: patent US11337988B2, “Use of ouabain antagonists to inhibit viral infection” (priority 2018, dated 2022)

Columns and labels:
[1] = system: EGFR Tyr845; test: EGFR phosphorylation array (pTyr845) in A549 cells; conditions: without RSV infection
Description: A549 cells were treated as indicated (either siRNA knock down for 48 h or pre-treatment with the chemical compounds ouabain [25 n1\4], PST2238 [40 μM] or Src Inhibitor-I (SrcI-I) [6.25 μM] and PP2 [12.5 μM] for 5 h pre-inoculation). Cells were serum starved overnight, before they were inoculated with wt RSV (MOI=5 PFU/cell) and incubated at 37° C. Cells were lysed 5 h p.i. and subjected to a phospho-specific EGFR array (RayBiotech, Inc.). (FIG. 8A) Representative array spots of pTyr845 EGFR and its corresponding pan EGFR for each treatment are shown. […] (FIG. 8D) As control, PST2238 or Ouabain pretreated A549 cells were stimulated with EGF (100 ng/ml) for 45 min and the pTyr845 EGFR signal was quantified. The statistical significance of the differences were determined by one-way analysis of variance with Dunnett multiple-comparison test and the significance p-values are indicated for each comparison. […]
Quantification of EGFR phosphorylation. […] The protein concentration of the lysate was quantified by bicinchoninic acid (BCA) assay (Thermo Fisher Scientific) and lysate containing 150 μg total protein was used for each array. […] The light emission of the array spots was detected by exposure to X-ray films. The films were scanned and the intensity values of each spot were quantified by ImageQuant TL (Array Version 8.1, GE Healthcare). […]

[2] = system: RSV-GFP; test: RSV-GFP infection of A549 cells, GFP intensity of total well by ELISA reader; conditions: discussion statement
Description: Quantification of RSV infection by viral expressed GFP. For the evaluation of RSV infection, RSV-GFP, a recombinantly derived virus that expresses enhanced green fluorescent protein (eGFP) from an additional gene inserted between the P and M genes, was used. SiRNA transfected or pre-treated A549 cells, seeded in a 12-well plate, were inoculated with an MOI of 1.0 PFU/cell. Inoculum was adsorbed for 2 h by incubating on a rocking platform at 37° C., after which the inoculum was washed off and replaced with fresh media. The infected cells were incubated for 17 h at 37° C. and 5% CO2 and the infectivity was evaluated by quantifying GFP either by ELISA reader or flow cytometry. For the ELISA reader quantification, the GFP intensity of the infected monolayer was quantified by an area scan (average GFP intensity of 29 individual measurements per well) on a Synergy 2 ELISA reader (BioTek). […] For the flow cytometry based GFP quantification, the cells were detached with 1 mM EDTA, stained with LIVE/DEAD fixable dead cell staining kit (Life Technologies), and fixed with 4% paraformaldehyde (PFA, Electron Microscopy Science, PA). The GFP intensities of single, live cells were analyzed on a Canto II flow cytometer (BD Biosciences, Franklin Lakes, N.J.).

[3] = biological target: T1, ATP1A1 (Homo sapiens, UniProt P05023); test: RSV-induced ATP1A1 clustering in A549 cells by confocal immunofluorescence; assay type: cell-based; conditions: A549 treated overnight, RSV MOI=5 PFU/cell, 5 hours
T1 construct: ATP1A1 being expressed ubiquitously and being the predominant isoform expressed in A549 cells; endogenous in cells; host or cells: A549 cells (ATCC CCL-185)
From the text: Whether PST2238 treatment had any effect on the clustering of ATP1A1 and RSV proteins was also investigated.
Immunofluorescence microscopy.

[4] = adducin- and ouabain-induced forms of hypertension; normal systolic blood pressure of healthy individuals not lowered; cited from earlier work
[5] = including 5 mg twice a day for a week and 0.5 mg per day for three months; cited from earlier work
[6] = system: RSV; test: Preliminary studies of RSV infection with an inhibitor of clathrin-mediated endocytosis; assay type: cell-based, human respiratory syncytial virus (RSV); conditions: non-toxic concentrations

Structure (SMILES): C[C@@H]1O[C@@H](O[C@H]2C[C@@H](O)[C@]3(CO)[C@@H]4[C@@H](CC[C@]3(O)C2)[C@@]2(O)CCC(C3=CC(=O)OC3)[C@@]2(C)C[C@@H]4O)[C@H](O)[C@H](O)[C@H]1O (stereo partly drawn) [ouabain, (1β,3β,5β,11α)-3-[(6-Deoxy-α-L-mannopyranosyl)oxy]-1,5,11,14,19-pentahydroxycard-20(22)-enolide]
- detection of phosphorylation of EGFR Tyr845 following treatment with compound alone [1]: not following treatment with ouabain
- concentrations at which inhibition of RSV infection was achieved [2]: sub-nanomolar

Structure (SMILES): C[C@]12CC[C@H](O)C[C@H]1CC[C@@H]1[C@@H]2CC[C@]2(C)[C@@](O)(c3ccoc3)CC[C@]12O [PST2238, (3β,5β,14β)-21,23-Epoxy-24-norchola-20,22-diene-3,14,17-triol]
- effect on the clustering of ATP1A1 [3]: no apparent effect
- effect on blood pressure [4]: lowers the blood pressure
- toxicity in human and animal models [5]: non-toxic

Structure (SMILES): CN(C)CCCN1c2ccccc2Sc2ccc(Cl)cc21 [chlorpromazine]
- effects on RSV infection [6]: did not detect effects
